# Experimental data from patent US20060165687A1, “Vaccine adjuvant” (DUKE UNIVERSITY, priority 2004, published 2006).
# B1: daclizumab (antibody, chains of the INN, looked up, V domains shown)
# VH: QVQLVQSGAEVKKPGSSVKVSCKASGYTFTSYRMHWVRQAPGQGLEWIGYINPSTGYTEYNQKFKDKATITADESTNTAYMELSSLRSEDTAVYYCARGGGVFDYWGQGTLVTVSS
# VL: DIQMTQSPSTLSASVGDRVTITCSASSSISYMHWYQQKPGKAPKLLIYTTSNLASGVPARFSGSGSGTEFTLTISSLQPDDFATYYCHQRSTYPLTFGQGTKVEVK
# Assays:
# [1] = test system: Foxp3+, CD25+, CD4+ T-regulatory cells; test: T-regulatory recovery after depletion and treatment with TLR-ligands; details: for effect on thymopoeisis (suggested by day 10 spike in percent thymic T-reg): after T-regulatory depletion; for induction of T-regulatory recovery in the thymus and spleen: conclusion
# [2] = test system: T regulatory phenotype cells; design: species or system non-human primate; details: in vivo
Molecule,effect on thymopoeisis (suggested by day 10 spike in percent thymic T-reg) [1],induction of T-regulatory recovery in the thymus and spleen [1],"T-regulatory recovery in the thymus ([1]; day 10, summary)","percent Foxp3+, CD25+, CD4+ splenocytes versus untreated mice ([1]; day 17, T-reg depleted mice)","T-regulatory recovery in the spleen ([1]; day 17, summary)","percent Foxp3+, CD25+, CD4+ splenocytes versus untreated mice ([1]; day 10, T-reg depleted mice)","T-regulatory recovery in the spleen ([1]; day 10, summary)","T-reg recovery in the thymus ([1]; day 17, summary)",time of maximum depletion of % and number of T regulatory phenotype cells [2] [weeks],time until which depletion lasted [2] [weeks]
"C=CCn1c(=O)n([C@@H]2O[C@H](CO)[C@@H](O)[C@H]2O)c2nc(N)[nH]c(=O)c21 [TLR-7 ligand, loxoribine]",have an effect on thymopoeisis,able to induce T-regulatory recovery,accelerated,significantly increased levels,accelerated,,,,,
Poly (I:C) [TLR-3 ligand],have an effect on thymopoeisis,able to induce T-regulatory recovery,,significantly increased levels,accelerated,significantly higher levels,accelerated,greater,,
flagellin [TLR-5 ligand],no effect,,,,,,,,,
B1,,,,,,,,,2,4
